Measurements from US5270339A, “Phenoxybenzene derivative” (Kanagafuchi Kagaku Kogyo Kabushiki Kaisha, priority 1991, dated 1993).
Structures can show the parent of a compound that is named as a salt.

Assays:
[1] = tested on: experimental amnesia in mice induced by cycloheximide; experiment: Anti-amnesic effect: passive avoidance task (step-through), cycloheximide-induced amnesia; format: in vivo, ddY male mice; conditions: for Step-through latency: mean of group; for responders at 1 mg/kg / responders at 3 mg/kg: Mus musculus, mice with latency > 100 seconds, read-out: Ratio of memory
Method: As experimental animals, Wistar male rats and ddY male mice were used for the tests after they were housed for a week under every 12 hours' dark-light cycle at room temperature of 24° to 26° C.
The effect on experimental amnesia in mice induced by cycloheximide was evaluated.
The experiment was carried out using an experimental apparatus of passive avoidance task for mice (made by Ohara-ika-sangyo K. K.) comprising a box divided into the two compartments of dark and light. That is, the dark compartment [a box having a reverse trapezoid cross section (height: 8 cm, base line: 5 cm, oblique line: 9.5 cm) and having the length of 14 cm] was shield from a light with a black plastic case and was floored with stainless grids for giving an electrical shock so that an electricity might be turned on a determined time after interception of a photobeam placed in the dark compartment. The light compartment made of transparent plastic (a box of the same shape as that of the dark compartment having the length of 16 cm, lightened from a location spaced 25 cm above by a 60 W electric lamp) was provided adjacent to the dark compartment. Between the two compartments, there was provided a circular entrance having the diameter of 3 cm with a guillotine door which could be opened and closed. By using the above-mentioned dark-light box, the experiment was carried out according to the following procedure.
A mouse (5 week-old) previously conditioned in the dark-light box was put in the light compartment and the guillotine door was opened. Three seconds after the mouse moved into the dark compartment and interrupted the photobeam, 0.3 mA electrical shock was given to limbs for 3 seconds from the floor grid (aquisition trial). Just after the mouse rushed into the light compartment, the door was shut and the […] in the light compartment was picked out to return to his home cage. After 24 hours, the mouse was placed again in the light compartment and the period from the opening of the guillotine door to the time the mouse completely entered the dark compartment was recorded maximally 300 seconds as a step-through latency (retention trial).
The amnesia was induced by subcutaneous injection of cycloheximide (120 mg/kg) dissolved in saline 10 minutes before the aquisition trial. As a control, the same amount of saline alone was administered. […]
A ratio of number of mice showing the step-through latency of more than 100 seconds in the group was defined as a ratio of memory for convenience's sake.
The step-through latency in Table 2 was the mean value for each treated group.

[2] = Acute toxicity test, oral; format: in vivo, ddY male mice; conditions: mouse, in vivo, ddY mice, 2 weeks observation
Method: With respect to the compounds 1 to 86 shown in Table 1 as test compounds, the acute toxicity was examined using ddY mice according to the following method.
In each group, six male ddY mice weighing 27 to 30 g were employed. The compounds 1 to 86 suspended in an aqueous solution of 0.5% sodium carboxymethylcellulose were administered orally in a volume of 0.1 ml/10 g body weight. […] The LD50 (mg/kg) values were estimated from the ratio of the number of dead mice to the number of mice used.

Structure (SMILES) | LD50 at 336 h [2] | other results
C(=C1CCN(C2CC2)C1)c1cccc(Oc2ccccc2)c1 [Compound 85] | ≥ 500 mg/kg | Step-through latency ([1]; 1 mg/kg oral): 97 s; responders at 1 mg/kg ([1]; 1 mg/kg oral): 25%
CCN1CC(C)C(=Cc2cccc(Oc3ccccc3)c2)C1=O (stereo not drawn) [Compound 61] | ≥ 500 mg/kg | Step-through latency ([1]; 1 mg/kg oral): 90 s; responders at 1 mg/kg ([1]; 1 mg/kg oral): 50%
C=CN1CCC(=Cc2cccc(Oc3ccccc3)c2)C1=O [Compound 21] | ≥ 500 mg/kg | –
C=CCN1CCC(=Cc2cccc(Oc3ccccc3)c2)C1 [Compound 69] | ≥ 500 mg/kg | Step-through latency ([1]; 1 mg/kg oral): 102 s; responders at 1 mg/kg ([1]; 1 mg/kg oral): 50%
CCOC(=O)N1CCC(=Cc2cccc(Oc3ccccc3)c2)C1 [Compound 72] | ≥ 500 mg/kg | –
O=C1C(=Cc2cccc(Oc3ccccc3)c2)CCN1C1CC1 [Compound 17] | ≥ 500 mg/kg | –
O=C1C(=Cc2cccc(Oc3ccccc3)c2)CCN1C(=O)c1ccccc1 [Compound 42] | ≥ 500 mg/kg | Step-through latency ([1]; 1 mg/kg oral): 80 s; responders at 1 mg/kg ([1]; 1 mg/kg oral): 25%
COCCN1CCC(=Cc2cccc(Oc3ccccc3)c2)C1=O [Compound 23] | ≥ 500 mg/kg | Step-through latency ([1]; 3 mg/kg oral): 71 s; responders at 3 mg/kg ([1]; 3 mg/kg oral): 50%
O=C1NCC(c2ccccc2)C1=Cc1cccc(Oc2ccccc2)c1 (stereo not drawn) [Compound 62] | ≥ 500 mg/kg | Step-through latency ([1]; 3 mg/kg oral): 170 s; responders at 3 mg/kg ([1]; 3 mg/kg oral): 50%
C1=Cc2cccc(OCC3CNCCO3)c2C1 (stereo not drawn) [Indeloxazine hydrochloride, reference compound] | – | Step-through latency ([1]; 3 mg/kg oral): 131 s; responders at 3 mg/kg ([1]; 3 mg/kg oral): 43%
O=C1C(=Cc2cccc(Oc3ccccc3)c2)CCN1c1ccccc1 [Compound 46] | ≥ 500 mg/kg | Step-through latency ([1]; 3 mg/kg oral): 172 s; responders at 3 mg/kg ([1]; 3 mg/kg oral): 75%
O=C1C(=Cc2cccc(Oc3ccccc3)c2)CCN1CCCl [Compound 27] | ≥ 500 mg/kg | –
NC(=O)N1CCC(=Cc2cccc(Oc3ccccc3)c2)C1 [Compound 73] | ≥ 500 mg/kg | Step-through latency ([1]; 1 mg/kg oral): 119 s; responders at 1 mg/kg ([1]; 1 mg/kg oral): 50%
O=C1NCCC1=Cc1cccc(Oc2ccc(Cl)cc2)c1 [Compound 6] | ≥ 500 mg/kg | Step-through latency ([1]; 3 mg/kg oral): 101 s; responders at 3 mg/kg ([1]; 3 mg/kg oral): 31%
COc1ccc(NC(=O)N2CCC(=Cc3cccc(Oc4ccccc4)c3)C2=O)cc1 [Compound 31] | ≥ 500 mg/kg | Step-through latency ([1]; 3 mg/kg oral): 100 s; responders at 3 mg/kg ([1]; 3 mg/kg oral): 50%
CN(C)N1CCC(=Cc2cccc(Oc3ccccc3)c2)C1=O [Compound 38] | ≥ 500 mg/kg | Step-through latency ([1]; 1 mg/kg oral): 100 s; responders at 1 mg/kg ([1]; 1 mg/kg oral): 50%

Structure (SMILES) | LD50 at 336 h [2] | other results
O=C1C(=Cc2cccc(Oc3ccccc3)c2)CCN1c1ccc(F)cc1F [Compound 47] | ≥ 500 mg/kg | –
CCC1NCCC1=Cc1cccc(Oc2ccccc2)c1 (stereo not drawn) [Compound 77] | ≥ 500 mg/kg | –
C(=C1CCN(CCOC2CCCCO2)C1)c1cccc(Oc2ccccc2)c1 (stereo not drawn) [Compound 70] | ≥ 500 mg/kg | –
Cc1ccc(Oc2cccc(C=C3CCNC3=O)c2)cc1 [Compound 4] | ≥ 500 mg/kg | –
NCCN1CCC(=Cc2cccc(Oc3ccccc3)c2)C1=O [Compound 39] | ≥ 500 mg/kg | –
O=C1C(=Cc2cccc(Oc3ccccc3)c2)CCN1CCc1ccccc1 [Compound 51] | ≥ 500 mg/kg | –
CCN1CCC(=Cc2ccc(Oc3ccccc3)cc2)C1 [Compound 18] | ≥ 500 mg/kg | –
O=C(O)CN1CCC(=Cc2cccc(Oc3ccccc3)c2)C1=O [Compound 29] | ≥ 500 mg/kg | –
CC1CNC(=O)C1=Cc1cccc(Oc2ccccc2)c1 (stereo not drawn) [Compound 60] | ≥ 500 mg/kg | –
NC(=O)CCN1CCC(=Cc2cccc(Oc3ccccc3)c2)C1=O [Compound 33] | ≥ 500 mg/kg | –
CCN1CCC(=Cc2cccc(Oc3ccc(C)cc3)c2)C1=O [Compound 15] | ≥ 500 mg/kg | –
CCN1C(=O)C(=Cc2cccc(Oc3ccccc3)c2)CC1O (stereo not drawn) [Compound 54] | ≥ 500 mg/kg | –
NC(=O)N1CCC(=Cc2cccc(Oc3ccccc3)c2)C1=O [Compound 30] | ≥ 500 mg/kg | –
CNC(=O)CN1CCC(=Cc2cccc(Oc3ccccc3)c2)C1=O [Compound 34] | ≥ 500 mg/kg | –
O=C1C(=Cc2cccc(Oc3ccccc3)c2)CCN1CCO [Compound 25] | ≥ 500 mg/kg | –
